# Key:
# Type in all cases: cell-based
# [1] = tested on: human fetal osteoblast cell line (ATCC, CRL-11372); assay: Osteoblast adhesion on RNT-coated titanium; details: coated on Ti, 4 h, FIG. 5
# Procedure: (§1) Titanium (Ti) (1 cm×1 cm×0.05 cm) (Alfa Aesar Ti foil) and glass coverslips were soaked in acetone for 15 min, sonicated for 15 min in acetone, and rinsed with dH2O. They were then soaked and sonicated in 70% ethanol and rinsed with dH2O. Lastly, they were soaked and sonicated in dH2O for another 15 min and rinsed. The glass was then etched in 1 M NaOH for 1 h and thoroughly rinsed in dH2O. All of the Ti and glass coverslips were oven-dried overnight and autoclaved for sterilization. The day before cell seeding, the cleaned Ti substrates were coated with the various RNTs (0.01 mg/mL) and KRSR peptide (0.01 mg/mL) solutions for 45 min at room temperature. They were then removed from the solutions and air-dried overnight. […]
# (§2) Osteoblasts, fibroblasts and endothelial cells were seeded onto the substrates at a density of 3500 cells/cm^2 and were incubated in the cell culture medium (specifically, DMEM supplemented with FBS and P/S for osteoblasts, EMEM supplemented with FBS for fibroblasts and MCDB-131 complete medium for endothelial cells) for 4 h. […] The cell density was then determined by counting cells using Image Pro Analyzer. […]
# (§3) Data are presented as the mean value±the standard error of the mean and were analyzed with a student's t-test to make pair-wise comparisons. […]
# [2] = tested on: rat skin fibroblast cell line (FR, ATCC, CRL-1213); assay: Fibroblast adhesion on RNT-coated titanium; details: 4 h, FIG. 7
# Procedure: as §1, §2, §3
# [3] = tested on: Rat aortic endothelial cells (RAEC); assay: Endothelial cell adhesion on RNT-coated titanium; details: coated on Ti, 4 h, FIG. 9
# Procedure: as §1, §2, §3
substance,measurement,setting,value
lysine-arginine-serine-argine (KRSR) [KRSR peptide],osteoblast adhesion (in words),[1],promoted more osteoblast cell adhesion relative to uncoated Ti
same,fibroblast adhesion compared to uncoated Ti,[2],did not enhance fibroblast adhesion
same,endothelial cell adhesion / density,[3],did not enhance endothelial cell adhesion
